Tests used:
citrated rat plasma = experiment: Ex vivo anticoagulant effect, activated partial thromboplastin time (APTT), rat plasma; settings: control clotting time 19.75 sec set to 1.0
Description: (§1) The ex vivo anticoagulant effects of BzlSO2 -Met(SO2)-Pro-Arg-al was determined by measuring the prolongation of the activated partial thromboplastin time (APTT) over a broad concentration range of the added inhibitor, using pooled normal human and rat plasma. Fresh frozen citrated pooled normal human plasma was obtained from George King Biomedical, Overland Park, Kans. Pooled normal rat plasma was prepared from citrated whole blood collected from anesthetized rats using standard procedures. The plasma was flash frozen and stored at -80° C. until use. Measurements APTT was made using the Coag-A-Mate RA4 automated coagulometer (General Diagnostics, Organon Technica, Oklahoma City, Okla.) using the Automated APTT reagent (Organon Technica, Durham, N.C.) as the initiator of clotting according to the manufacturers instructions.
(§2) The assay was conducted by making a series of dilutions of the test compounds in rapidly thawed plasma followed by adding 200 microliters to the wells of the assay carousel.

citrated human plasma = experiment: Ex vivo anticoagulant effect, activated partial thromboplastin time (APTT), human plasma; settings: citrated pooled normal human plasma; control clotting time 28.3 sec set to 1.0
Description: as §1, §2

[1] = tested on: thrombotic occlusion of the rat carotid artery; experiment: Rat model of FeCl3-induced platelet-dependent arterial thrombosis; format: in vivo, rat (male Harlan Sprague Dawley); settings: i.v. bolus
Excerpt: Kurz, K. D., Main, B. W., and Sandusky, G. E., Thromb. […] In this model a platelet-rich, occlusive thrombus is formed in a segment of the rat carotid artery treated locally with a fresh solution of FeCl3 absorbed to a piece of filter paper. The FeCl3 is thought to diffuse into the treated segment of artery and causes de-endothelialization of the affected vessel surface. […] The effect of a test compound on the incidence of occlusive thrombus formation following the application of the FeCl3 is monitored by ultrasonic flowtometry and is used as the primary end point. The use of flowtometry to measure carotid artery blood flow, is a modification of the original procedure in which thermal detection of clot formation was employed. Kurz, K. D., Main, B. W., and Sandusky, G. E., Thromb. […] Male Harlan Sprague Dawley rats (420-450 g) were acclimated at least 72 hours prior to use and fasted for 12 hours prior to surgery with free access to water. […] Blood pressure, blood flow, heart rate, and respiration were monitored for 60 minutes. The incidence of occlusion (defined as the attainment of zero blood flow) was recorded as the primary end point. […] This allows a direct comparison of the antithrombotic efficacy of BzlSO2 -[…] with other antithrombotic agents which have also been evaluated in this model as described above.

CS(=O)(=O)CC[C@H](NS(=O)(=O)Cc1ccccc1)C(=O)N1CCC[C@H]1C(=O)N[C@H](C=O)CCCNC(=N)N [Example 27, N-benzylsulfonyl-L-methionine sulfone-L-proline-L-argininal]
prolongation of the APTT (citrated rat plasma): prolonged the APTT in a dose dependent manner in both rat and human plasma
prolongation of the APTT (citrated human plasma): prolonged the APTT in a dose dependent manner in both rat and human plasma
efficacy in preventing thrombus formation (result in words) [1]: reduction in the incidence of thrombotic occlusion

Source: patent US5776927A, “Methionine sulfone and S-substituted cysteine sulfone derivatives as enzyme inhibitors” (Corvas International, Inc., priority 1994, dated 1998)
